Assays:
[1] = tested on: oral tolerance to β-lactoglobulin; settings: previously identified as part of a longer peptide sequence in the earlier filing; cited from earlier work
HLA-DR = assay: peptides bound to HLA-DR on cells cultured with NAN-HA/BEBA-HA formula, isolated by immunoprecipitation and identified by LC-MS/MS; assay type: binding, human; settings: U937 and Thp1 cells incubated 24 hours with BEBA-HA; immunoprecipitation with clone L243; nano-LC-MSMS
Protocol: In a set of experiments detailed in Example 1, the present inventors identified the peptide sequences of BLG responsible for the induction of oral tolerance towards milk proteins, in particular BLG. In a first step, using a cellular based assay, partially hydrolyzed infant formula NAN HA™ (otherwise known as BEBE HA™) from Nestlé, was incubated with human cells expressing the Major Histocompatibility Complex (MHC) class II receptor, HLA-DR. As the first step in the induction of oral tolerance, the HLA receptor presents peptide sequences to the T cells, thereby inducing tolerance. Thus, development of tolerance is largely dependent on the recognition of the peptide sequence by the MHC.
Thus, in the current invention, the human cells expressing HLA-DR were cultured in the presence of NAN-HA™ formula (which had been verified to be non-toxic for the cells), the peptides that bound to the HLA receptor were isolated by immunoprecipitation, and then identified by mass spectrometry and amino acid sequencing.
The Thp1 and U937 cells were incubated in 20 mL RPMI-1640 medium with L-Glutamine (Sigma) supplemented with 10% heat-inactivated FCS (Amimed, Bioconcept) and Penicillin/Streptomycin (Sigma) at a concentration of 1×10^6 cells/mL in a T175 cm^2 (Falcon) with respectively 1 ug/mL and 100 ug/mL of BEBA-HA (Nestlé, Lot# L02680742AP) for a 24 hours period at 37° C. in presence of 5% CO2. Cells were spun down and harvested to perform immunoprecipitation of MHC-peptide complexes.
Briefly, for each condition tested (control without BEBA-HA, sample with BEBA-HA for both cell lines), 2×10^7 cells were resuspended in ice cold TBS and washed three times. […]
Before MS analysis, HLA-DR peptides were desalted using either reversed-phase C18 (The Nest group, USA) or mixed-mode OASIS (Waters, USA) desalting columns as described in the manufacturer's manual. After desalting, peptides were analyzed by nano-LC-MSMS using an in-house Magic C18 column (150×0.075 mm) for peptide separation (2-35% Acetontril/0.1% formaic acid in 30 minutes) coupled to an Orbitrap XL instrument. […]

[2] = tested on: BLG-specific IgE antibodies; assay: experimental mouse model of sensitization to BLG: gavage, then i.p. sensitization, BLG-specific IgE in serum; assay type: in vivo, BALB/cJ mice; settings: gavage days 1, 2, 3, 8, 9 and 10 (0.22 μmole); i.p. native BLG on alum day 14; serum days 30-33; FIG. 1
Protocol: Mice were fed either native BLG or either synthetic peptide (84-106) or (25-107) by gavage on day 1, 2, 3, 8, 9 and 10. They were then sensitized by i.p. administration with native BLG on day 14. Serum IgE levels were measured between day 30 and 33.
Specific pathogen-free (SPF) BALB/cJ mice (3 to 4 weeks-old females, Centre d'Elevage René Janvier, Le Genest Saint-Isle, France) were housed in filtered cages under normal SPF husbandry conditions (autoclaved bedding and sterile water) and were acclimatized for two weeks before experiments. They were maintained on a diet deprived of animal protein, and in which BLG was not detected using specific sandwich immunoassays. All animal experiments were performed according to European Community rules of animal care, and with authorization 91-368 of the French Veterinary Services. […]
Groups of 6 or 7 mice were administered either 4 mg of native bovine BLG, or equivalent quantity (i.e. 0.22 μmole) of isolated synthetic BLG peptides. […]
The efficacy of mice sensitization was assessed by quantitative measurements of BLG-specific IgE antibodies on individual serum samples collected from the mice retro-orbital venous plexus under light anaesthesia (Isoflurane, Baxter) between days 30-33. Non-specific binding was determined using individual sera from 10 naive mice, and was deduced from the absorbance values measured with immune sera. […]

Row | Substance | induction of oral tolerance [1] | recognition by and binding to HLA-DR (identified among HLA-DR bound peptides) (HLA-DR) | BLG-specific serum IgE level / tolerance induction compared to control (PBS) [2]
1 | EVDDEALEK [peptide c, previously known tolerogenic BLG peptide, position 143-151, positive control] | inducers of oral tolerance | identified by this method | 
2 | VLDTDY (SAEPEQ; UniProt P02754 126-131, looked up, fragment) [peptide b, previously known tolerogenic BLG peptide, position 110-115, positive control] | inducers of oral tolerance | identified by this method | 
3 | IDALNENK [peptide a, previously known tolerogenic BLG peptide, position 100-107, positive control] | inducers of oral tolerance | identified by this method | 
4 | peptide (84-106): synthetic peptide corresponding to the bovine BLG sequence numbers 84-106 (MW 2731 Da) (IDALNENKVLVLDTDYKKYLLFC; UniProt P02754 100-122, looked up, fragment) |  |  | tendency towards a lower level of IgE
